Measured values as given in US6380217B1, “Methods for controlling GGT-positive bacteria” (priority 1999, dated 2002).

molecular target: GGT (gamma glutamyl transpeptidase) of H. pylori ATCC 43504 cells (Helicobacter pylori, UniProt O25743); test: Cell Based GGT Inhibitor (CBGI) Assay; conditions: whole H. pylori ATCC 43504 cells, ~30 min room temperature, AMC release fluorescence; table titled 'Binding Data of GGT Modulating Compounds'
Procedure: Cell Based GGT Inhibitor Assay
The protocol of the Cell Based GGT Inhibitor Assay (CBGI assay) is adapted from the Methods in Enzymology protocol 252: 66 (1995).
H. pylori Sample Preparation
H. pylori ATCC 43504 were grown on blood agar plates. For accurate results, the H. pylori cells were in a logarithmic, spiral phase. This was achieved by plating cells from a culture that was >75% spiral in a phosphate buffered saline (PBS) solution on blood agar plates and incubating them overnight in microaerophilic conditions at 37° C. The next day, the cells were harvested by adding 1 ml of PBS to the plate and scraping off cells gently with a loop. The cells were then placed in a sterile 50 ml conical tube and the plate was washed ˜5 times with 1 ml of PBS. The washes were then pooled in the same 50 ml tube. An OD600 was subsequently taken using PBS as the blank. The cells were then resuspended to reach a final OD600 of 0.05. A single blood agar plate typically yields approximately 50-75 mls of cells at A600 OD=0.05. 3 mls of cells at OD=0.05 are required for each 96-well plate; 30 μl added to each well yields a final OD of 0.015. 4-5 blood agar plates would yield more than enough H. pylori cells for 50 96-well microtitre plates.
On each test plate, two known inhibitors were added to separate control wells (4 μl 0.25 mM azaserine and 4 μl 1.25 mM γ-glu-hydroxamate). Control wells containing only cells were also included on each test plate. In each well, 70 μl of buffer was added using an automated dispenser. Then, 30 μl H. pylori cells were added at OD A600=0.05. After the cells were added to each well, the plate was kept at room temperature for ˜30 minutes. The reaction was terminated by dispensing 75 μl 100 mM glycine to each well.
GGT inhibition was determined by analyzing the release of amido-4-methylcoumarin (AMC) at A460 nm after excitation at A360 in Cytoflour//Walloc fluorescent plate reader. The data was compared to the average of the two control wells from each plate and the γ-glu-hydroxamate control, which should always be ˜50%. Any compound that inhibited ≦50% activity was retested.

Chain of GGT (gamma glutamyl transpeptidase) of H. pylori ATCC 43504 cells (O25743 entry or part of it): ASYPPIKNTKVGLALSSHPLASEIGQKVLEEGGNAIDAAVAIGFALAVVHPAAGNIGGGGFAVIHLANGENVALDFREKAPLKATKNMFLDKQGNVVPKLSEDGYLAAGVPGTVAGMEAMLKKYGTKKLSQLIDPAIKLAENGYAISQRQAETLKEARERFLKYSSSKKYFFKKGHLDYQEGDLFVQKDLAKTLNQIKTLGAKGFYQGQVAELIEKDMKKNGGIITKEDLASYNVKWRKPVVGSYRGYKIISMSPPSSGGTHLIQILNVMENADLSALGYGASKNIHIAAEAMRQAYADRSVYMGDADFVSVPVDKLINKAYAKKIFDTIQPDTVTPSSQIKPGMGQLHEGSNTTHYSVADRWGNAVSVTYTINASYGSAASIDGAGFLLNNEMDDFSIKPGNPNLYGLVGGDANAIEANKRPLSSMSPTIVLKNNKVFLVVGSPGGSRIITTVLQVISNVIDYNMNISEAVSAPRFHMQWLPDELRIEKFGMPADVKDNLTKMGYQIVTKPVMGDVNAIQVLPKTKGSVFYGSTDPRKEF

For `CCN1CCCC(NC(=O)c2ccc(Nc3ccnc4cc5ccccc5cc34)cc2)C1` (stereo not shown) [A], which IC50 is on record?
The IC50 was 1.13 µM.

For `Cc1ccc(CSc2nnc(/N=C/N(C)C)s2)cc1` [F], which IC50 is on record?
The IC50 was 2.02 µM.

Which IC50 does the source give for `CCN(CC)CCn1c(SCC(=O)c2ccc(-c3ccccc3)cc2)nc2cc(C(=O)NC(Cc3cn(Cc4ccccc4)cn3)C(N)=O)ccc21` (stereo not shown) [E] here?
The IC50 was 11.2 µM.

How did the IC50 turn out when `COc1cc(/C=C2/SC(=S)NC2=O)ccc1O` [B] was run?
The IC50 was 22.4 µM.

`Cc1nc(-c2nc(C(=O)/C=C/N(C)C)cs2)cs1` [C] was tested. Which IC50 did it give?
Its IC50 is 17.9 to 35.8 µM.

With `CC(C)OC(=O)CSc1nc2cc(C(=O)NC(Cc3cnc[nH]3)C(N)=O)ccc2n1CCc1c[nH]c2ccccc12` (stereo not shown) [D] as the molecule, how does the IC50 read?
Its IC50 is 4.53 µM.

For `COc1cccc(-c2cc3[nH]c(C)cc(=O)n3n2)c1` [G], which IC50 is on record?
Its IC50 is 2.15 µM.
